# According to US9944618B2, “Inhibiting neurotransmitter reuptake” (Mayo Foundation for Medical Education and Research, priority 2013, dated 2018):
# Where two headings read alike, the source gives them in different places.
# Assays:
# [1] = target: human norepinephrine transporter (Homo sapiens (Human), UniProt P23975); experiment: Human NET (norepinephrine transporter) uptake assay; format: cell-based; settings: read-out: hNET Ki
# Procedure, shortened: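 HEK293F cells transfected with human NET were thawed, plated at about 60,000 cells/well and held at 37 °C for at least 3 h. Compounds came from 10 mM DMSO stocks, with nomifensine as control, in 1×HBSS/0.02 M HEPES. Uptake was followed with a neurotransmitter transporter dye, dosed as % of vendor reconstitution, in triplicate.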
# [2] = target: human dopamine transporter (Homo sapiens (Human), UniProt Q01959); experiment: Human DAT (dopamine transporter) uptake assay; format: cell-based; settings: read-out: hDAT Ki
# Procedure, shortened: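 Uptake inhibition was measured in HEK293F cells transfected with human DAT, plated at ~60,000 cells/well and settled ≥3 h at 37 °C. Compounds came from 10 mM DMSO stocks. Read-out was uptake of a fluorescent neurotransmitter transporter dye in HBSS with 0.02 M HEPES, with dye level given as % of vendor reconstitution; n=3.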
# [3] = target: human serotonin transporter (Homo sapiens (Human), UniProt P31645); experiment: Human SERT (serotonin transporter) uptake assay; format: cell-based; settings: read-out: hSERT Ki
# Procedure, shortened: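 HEK293F cells transfected with human SERT, about 60,000 per well, settled for ≥3 h at 37° C before compound addition. Uptake was followed with a fluorescent transporter dye in HBSS with 0.02 M HEPES. Background came from 10 μM fluoxetine, nomifensine was the control, n=3.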
# hERG = hERG (Homo sapiens (Human), UniProt Q12809); experiment: Human ERG (hERG) assay, hERG currents in hERG-expressing CHO cells; format: cell-based
# Source text: The voltage-dependent potassium channel encoded by the human ether-a-go-go-related gene (hERG) is believed to play a key role in repolarisation of the ventricular cardiac action potential. Changes in its activity, caused either by inherited mutations of the gene sequence or pharmacological modification, can lead to prolongation of action potential duration. This can lead to prolongation of the QT interval recorded in man on an electrocardiogram and to a potentially fatal cardiac arrhythmia known as Torsades de Pointes.
# hERG currents were recorded from hERG-expressing CHO cells. The biophysical and pharmacological characterization of the hERG currents in these cells was performed.
# CYP3A4 = CYP3A4 (Homo sapiens (Human), UniProt P08684); experiment: Cytochrome P450 inhibition assay, recombinant CYP3A4 (BFC substrate); format: in vitro ADME; settings: recombinant enzyme
# CYP2D6 = CYP2D6 (Homo sapiens (Human), UniProt P10635); experiment: Cytochrome P450 inhibition assay, recombinant CYP2D6 (MAMC substrate); format: in vitro ADME; settings: recombinant enzyme
# Description: Recombinant enzymes, 3A4 and 2D6, generated using the ABL yeast expression system were used. […] The assay mixture also included K2HPO4 (pH 7.4; conc. 0.1 M) and NADPH (conc. 1 mM). The incubation time was 30 minutes, and the reference inhibitor was A-naphthoflavone. For CYP2D6, the enzyme amount was 2 pmol per well, and the substrate (7-methoxy-4-(aminomethyl)-coumarin; MAMC) was used at 20 μM. The assay mixture also included K2HPO4 (pH 7.4; conc. 0.1 M) and NADPH (conc. 0.06 mM). The incubation time was 35 minutes, and the reference inhibitor was quinidine.
# Briefly, 0.6 μL of serially diluted compound was added to 75 μL water. 10 μL of diluted compound in water was then added to each assay plate. 20 μL of a K2HPO4, enzyme, and substrate mixture was added. After 10 minutes of room temperature pre-incubation, 10 μL of NADPH was added, and the plates were placed at 37° C. for 30 or 35 minutes depending on the enzyme being tested. After the incubation was complete, 20 μL of 0.1% Tris/ACN was added to the plate. The plate was read on a FluorStar fluorescence plate reader.
# [4] = pKa of basic centres (Table 1); format: physicochemical
# [5] = first base, e.g., an aliphatic primary, secondary, or tertiary amine, read-out: pKa (Base 1)
# [6] = second base in the same molecule (if present), read-out: pKa (Base 2)
# [7] = first base, e.g., an aliphatic primary, secondary, or tertiary amine
# [8] = selected reference compounds, HEK293F cells, Cheng-Prusoff
# [9] = selected reference compounds, CHO cells
# CYP2D6, sequence (P10635 whole entry): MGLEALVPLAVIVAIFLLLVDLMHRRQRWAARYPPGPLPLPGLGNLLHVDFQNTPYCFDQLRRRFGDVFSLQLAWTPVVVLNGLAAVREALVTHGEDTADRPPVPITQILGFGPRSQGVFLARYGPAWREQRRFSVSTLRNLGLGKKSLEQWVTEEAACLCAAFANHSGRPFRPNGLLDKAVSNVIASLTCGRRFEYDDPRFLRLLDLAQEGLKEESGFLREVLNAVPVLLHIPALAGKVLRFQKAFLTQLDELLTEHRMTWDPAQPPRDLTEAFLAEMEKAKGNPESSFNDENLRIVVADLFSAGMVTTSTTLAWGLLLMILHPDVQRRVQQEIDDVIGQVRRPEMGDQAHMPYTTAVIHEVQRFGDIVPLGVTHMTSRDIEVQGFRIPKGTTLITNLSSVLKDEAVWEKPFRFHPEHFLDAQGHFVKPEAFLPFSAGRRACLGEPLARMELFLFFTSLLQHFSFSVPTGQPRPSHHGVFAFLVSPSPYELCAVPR
# human dopamine transporter, sequence (Q01959 whole entry): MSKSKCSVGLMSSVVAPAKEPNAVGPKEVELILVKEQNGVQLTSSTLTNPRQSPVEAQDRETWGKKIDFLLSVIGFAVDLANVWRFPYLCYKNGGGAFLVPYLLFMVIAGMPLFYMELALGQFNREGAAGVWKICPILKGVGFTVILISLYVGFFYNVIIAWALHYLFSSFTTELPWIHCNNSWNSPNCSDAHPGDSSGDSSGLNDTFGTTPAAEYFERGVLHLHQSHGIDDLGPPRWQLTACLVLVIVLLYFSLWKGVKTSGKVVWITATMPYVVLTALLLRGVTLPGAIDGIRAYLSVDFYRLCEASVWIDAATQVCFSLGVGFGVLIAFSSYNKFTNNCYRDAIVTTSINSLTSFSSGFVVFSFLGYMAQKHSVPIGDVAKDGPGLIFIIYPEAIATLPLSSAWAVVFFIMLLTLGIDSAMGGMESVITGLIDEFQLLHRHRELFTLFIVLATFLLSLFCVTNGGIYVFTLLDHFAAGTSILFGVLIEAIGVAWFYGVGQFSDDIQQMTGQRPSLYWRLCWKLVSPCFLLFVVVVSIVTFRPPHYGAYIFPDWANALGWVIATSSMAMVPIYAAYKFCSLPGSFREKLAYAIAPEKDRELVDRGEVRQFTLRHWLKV
# human serotonin transporter, sequence (P31645 whole entry): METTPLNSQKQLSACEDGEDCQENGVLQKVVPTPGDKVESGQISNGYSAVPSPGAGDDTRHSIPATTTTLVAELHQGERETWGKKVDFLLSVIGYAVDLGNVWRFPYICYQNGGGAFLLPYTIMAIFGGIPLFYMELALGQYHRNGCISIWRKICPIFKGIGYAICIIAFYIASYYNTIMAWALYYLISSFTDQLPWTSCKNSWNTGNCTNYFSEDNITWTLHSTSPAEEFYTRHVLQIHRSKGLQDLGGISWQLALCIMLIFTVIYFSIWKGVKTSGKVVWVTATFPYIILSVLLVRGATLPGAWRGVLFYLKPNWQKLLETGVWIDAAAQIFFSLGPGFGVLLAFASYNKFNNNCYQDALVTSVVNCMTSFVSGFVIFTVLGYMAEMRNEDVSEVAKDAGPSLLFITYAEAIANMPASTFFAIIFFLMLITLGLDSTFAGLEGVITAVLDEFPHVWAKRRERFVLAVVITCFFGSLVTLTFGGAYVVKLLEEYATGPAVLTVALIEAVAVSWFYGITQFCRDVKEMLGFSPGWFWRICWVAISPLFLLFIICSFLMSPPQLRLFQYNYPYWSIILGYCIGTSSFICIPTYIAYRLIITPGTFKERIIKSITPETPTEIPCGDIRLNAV
# human norepinephrine transporter, sequence (P23975 whole entry): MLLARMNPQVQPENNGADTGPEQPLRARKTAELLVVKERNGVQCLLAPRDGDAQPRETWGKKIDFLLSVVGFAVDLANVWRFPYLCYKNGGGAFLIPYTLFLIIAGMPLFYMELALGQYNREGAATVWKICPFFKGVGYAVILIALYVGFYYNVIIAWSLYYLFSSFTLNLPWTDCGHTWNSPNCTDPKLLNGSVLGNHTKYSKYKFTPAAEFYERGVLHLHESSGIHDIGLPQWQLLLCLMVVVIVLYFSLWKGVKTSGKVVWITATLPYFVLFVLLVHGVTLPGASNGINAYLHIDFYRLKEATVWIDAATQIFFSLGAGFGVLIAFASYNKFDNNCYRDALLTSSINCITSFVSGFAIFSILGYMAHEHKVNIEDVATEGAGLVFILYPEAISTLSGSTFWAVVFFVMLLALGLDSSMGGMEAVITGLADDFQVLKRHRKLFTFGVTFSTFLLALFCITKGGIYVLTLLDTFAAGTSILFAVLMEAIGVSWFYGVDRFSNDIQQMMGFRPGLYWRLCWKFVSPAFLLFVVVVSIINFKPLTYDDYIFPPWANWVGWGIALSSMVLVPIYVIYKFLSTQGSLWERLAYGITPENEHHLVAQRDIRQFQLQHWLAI
# CYP3A4, sequence (P08684 whole entry): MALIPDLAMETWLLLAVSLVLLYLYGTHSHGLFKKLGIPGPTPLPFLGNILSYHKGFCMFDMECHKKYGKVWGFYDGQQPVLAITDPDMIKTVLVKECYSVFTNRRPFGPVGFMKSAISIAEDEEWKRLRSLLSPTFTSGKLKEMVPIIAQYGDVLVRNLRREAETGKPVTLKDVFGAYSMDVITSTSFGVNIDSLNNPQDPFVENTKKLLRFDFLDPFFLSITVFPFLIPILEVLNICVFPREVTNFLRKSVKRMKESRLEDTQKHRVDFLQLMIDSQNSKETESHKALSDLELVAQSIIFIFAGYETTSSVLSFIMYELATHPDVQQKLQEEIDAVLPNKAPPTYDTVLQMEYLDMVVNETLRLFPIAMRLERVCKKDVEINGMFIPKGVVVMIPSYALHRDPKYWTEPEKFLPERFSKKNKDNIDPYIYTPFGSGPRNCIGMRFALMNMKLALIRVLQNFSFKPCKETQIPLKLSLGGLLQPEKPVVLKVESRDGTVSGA
# hERG, sequence (Q12809 whole entry): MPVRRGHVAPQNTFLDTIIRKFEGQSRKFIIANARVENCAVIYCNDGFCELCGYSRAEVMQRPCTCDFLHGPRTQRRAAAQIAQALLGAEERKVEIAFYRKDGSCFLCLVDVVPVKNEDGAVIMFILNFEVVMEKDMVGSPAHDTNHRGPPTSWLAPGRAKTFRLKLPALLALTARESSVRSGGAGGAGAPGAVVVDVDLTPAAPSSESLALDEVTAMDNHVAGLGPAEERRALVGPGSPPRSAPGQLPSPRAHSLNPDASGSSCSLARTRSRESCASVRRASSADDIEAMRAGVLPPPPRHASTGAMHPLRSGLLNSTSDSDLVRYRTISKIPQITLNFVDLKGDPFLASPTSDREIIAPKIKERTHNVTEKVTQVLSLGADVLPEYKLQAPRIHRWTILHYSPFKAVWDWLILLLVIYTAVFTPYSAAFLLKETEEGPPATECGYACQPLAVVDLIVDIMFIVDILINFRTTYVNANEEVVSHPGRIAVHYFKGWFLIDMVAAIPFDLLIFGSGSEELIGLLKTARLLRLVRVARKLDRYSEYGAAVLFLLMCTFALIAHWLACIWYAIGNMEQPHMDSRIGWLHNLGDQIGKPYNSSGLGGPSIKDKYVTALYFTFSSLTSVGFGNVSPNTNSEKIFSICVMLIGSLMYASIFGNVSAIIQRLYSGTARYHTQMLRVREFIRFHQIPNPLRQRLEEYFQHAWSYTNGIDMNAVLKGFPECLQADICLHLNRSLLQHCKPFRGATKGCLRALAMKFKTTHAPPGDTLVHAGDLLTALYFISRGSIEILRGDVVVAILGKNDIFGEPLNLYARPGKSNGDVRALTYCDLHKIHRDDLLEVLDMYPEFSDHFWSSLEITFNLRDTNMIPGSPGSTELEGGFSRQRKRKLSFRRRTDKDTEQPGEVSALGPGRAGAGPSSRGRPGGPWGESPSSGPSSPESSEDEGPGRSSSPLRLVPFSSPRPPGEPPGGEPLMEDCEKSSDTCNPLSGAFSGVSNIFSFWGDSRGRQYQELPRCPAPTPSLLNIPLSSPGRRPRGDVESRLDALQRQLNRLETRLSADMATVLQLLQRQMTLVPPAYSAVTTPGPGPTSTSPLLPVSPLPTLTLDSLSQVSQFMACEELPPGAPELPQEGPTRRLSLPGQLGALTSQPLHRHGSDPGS
SMILES,Ki [1] [nM],Ki [2] [nM],Ki [3] [nM],IC50 (CYP3A4) [nM],IC50 (CYP2D6) [nM],"pKa [4, 5]","pKa [4, 6]",IC50 (hERG; hERG-expressing CHO cells) [nM],"pKa (Base 1) [4, 7]","Ki [1, 8] [nM]","Ki [2, 8] [nM]","Ki [3, 8] [nM]",IC50 (hERG; [9]) [nM]
CNC[C@H](c1ccc(Br)c(Cl)c1)[C@H](O)c1ccccc1 (racemic) [Compound 43],3.3,7.3,19.7,8100,110,9.4,–,7100,–,–,–,–,–
CNCC(c1ccc(Cl)c(Cl)c1)[C@H](O)c1ccccc1 (mixture of isomers) [Compound 53],4.5,9.8,17.3,≥ 20000,410,9.4,–,9800,–,–,–,–,–
CNC[C@H](c1ccc2ccccc2c1)[C@H](O)c1cccnc1 (racemic) [Compound 62],6.5,45,9.9,≥ 20000,1000,9.6,5.1,25000,–,–,–,–,–
CNC[C@H](c1ccc2ccccc2c1)[C@H](OC)c1ccc2c(c1)OCO2 (racemic) [Compound 136],37.4,64.5,15.7,3400,190,9.7,–,5400,–,–,–,–,–
"CNC[C@H](c1ccc(Cl)c(Cl)c1)[C@H](O)c1cccc(I)c1 (single isomer, unassigned) [Compound 151]",20.4,31.4,45.2,2100,130,9.4,–,3800,–,–,–,–,–
CNC[C@H](c1ccc2ccccc2c1)[C@H](OCc1cc(C)on1)c1ccccc1 [Compound 18],1.8,31.9,0.4,–,330,9.6,–,4600,–,–,–,–,–
CNC[C@H](c1ccc2ccccc2c1)[C@H](OCC(=O)N1CCCC1)c1ccccc1 [Compound 50],3.8,36.5,2.9,–,800,9.6,–,17000,–,–,–,–,–
c1ccc([C@@H]2OCCNC[C@H]2c2ccc3ccccc3c2)cc1 [Compound 64],7.2,9.4,11.3,–,5100,9.3,–,20000,–,–,–,–,–
CNCC(c1ccc(F)c(Cl)c1)[C@H](O)c1ccccc1 (stereo partly shown) [Compound 73],–,–,–,20000,790,9.3,–,31000,–,–,–,–,–
CN1CCO[C@H](c2ccccc2)[C@@H](c2ccc3ccccc3c2)C1 [Compound 77],12.4,44.7,3,–,5700,8.2,–,4500,–,–,–,–,–
CNC[C@@H](c1ccc(Cl)c(Cl)c1)[C@@H](O)c1ccccc1 [Compound 114],171,27,661,–,–,9.4,–,11000,–,–,–,–,–
CNCC(Cc1ccccc1OC)c1ccc2ccccc2c1 (stereo not shown) [Compound 132],10.3,41.8,12.4,–,–,–,–,4700,10.1,–,–,–,–
CNC[C@H](c1ccc(Cl)c(Cl)c1)[C@@H](O)c1ccccc1S(C)(=O)=O [Compound 170],306,40,2010,4800,380,9.3,–,–,–,–,–,–,–
CNC[C@@H](c1ccc(Cl)c(Cl)c1)[C@@H](O)c1cccnc1OC [Compound 171],454,92,1850,20000,2000,9.2,3.2,–,–,–,–,–,–
CNC[C@H](c1ccc2ccccc2c1)[C@H](O)c1ccccc1 [compound 173],–,–,–,–,–,–,–,–,–,0.5,4.6,1.2,8800
CNC[C@@H](c1ccc2ccccc2c1)[C@H](O)c1ccccc1 [compound 180],–,–,–,–,–,–,–,–,–,2.9,47.5,14.8,32000

# Now from value to compound, other results behind:
Ki [1] [nM],Ki [2] [nM],Ki [3] [nM],IC50 (CYP3A4) [nM],IC50 (CYP2D6) [nM],"pKa [4, 5]","pKa [4, 6]",SMILES,IC50 (hERG; hERG-expressing CHO cells) [nM],"pKa (Base 1) [4, 7]","Ki [1, 8] [nM]","Ki [2, 8] [nM]","Ki [3, 8] [nM]",IC50 (hERG; [9]) [nM]
3.2,114,3.3,19000,960,10,–,CNCC(Cc1cccs1)c1ccc2ccccc2c1 (racemic) [Compound 40],4100,–,–,–,–,–
4.7,40.4,6.7,11000,240,9.7,–,CNC[C@H](c1ccc2ccccc2c1)[C@H](O)c1ccccc1C (racemic) [Compound 56],22000,–,–,–,–,–
10.1,100,27.6,≥ 20000,760,9.6,4.1,CNC[C@@H](c1ccc2ccccc2c1)[C@H](O)c1ccccn1 (racemic) [Compound 72],33000,–,–,–,–,–
11.7,58.1,21.4,≥ 20000,910,8.9,–,CN(C)C[C@H](c1ccc2ccccc2c1)[C@H](O)c1cccs1 (racemic) [Compound 135],3100,–,–,–,–,–
10.9,134,9.4,19000,310,9.7,–,CNC[C@@H](c1ccc2ccccc2c1)[C@@H](O)c1ccc2c(c1)OCCO2 (racemic) [Compound 145],11000,–,–,–,–,–
2.2,106,22.7,–,320,9.9,–,"CNCC(c1ccc2ccccc2c1)[C@H](CO)c1ccccc1 (single isomer, unassigned) [Compound 25]",33000,–,–,–,–,–
0.7,20.7,1.9,–,1100,9.6,–,CNC[C@H](c1ccc2ccccc2c1)[C@H](OCC(=O)NC)c1ccccc1 [Compound 1],33000,–,–,–,–,–
1,5.5,2.5,–,170,–,–,CNCC(Cc1ccccc1CO)c1ccc2ccccc2c1 (stereo not shown) [Compound 2],15000,10,–,–,–,–
1.4,39.2,0.8,–,760,9.6,–,CCNC(=O)CO[C@H](c1ccccc1)[C@H](CNC)c1ccc2ccccc2c1 [Compound 6],25000,–,–,–,–,–
1.9,36.1,3.2,–,–,9.6,–,CNC[C@H](c1ccc2ccccc2c1)[C@H](OCc1cc(C)no1)c1ccccc1 [Compound 20],4700,–,–,–,–,–
2.4,37.2,1.1,–,650,9.6,–,CCCNC(=O)CO[C@H](c1ccccc1)[C@H](CNC)c1ccc2ccccc2c1 [Compound 29],11000,–,–,–,–,–
2.4,14.3,1,–,–,9.6,–,CNC[C@H](c1ccc2ccccc2c1)[C@H](OCC(=O)N1CCC1)c1ccccc1 [Compound 30],29000,–,–,–,–,–
2.7,13.2,1.4,–,550,9.6,–,CNC[C@H](c1ccc2ccccc2c1)[C@H](OCC(=O)N(C)C)c1ccccc1 [Compound 33],33000,–,–,–,–,–
2.8,70.8,3.7,–,320,9.6,–,CCOC(=O)CO[C@H](c1ccccc1)[C@H](CNC)c1ccc2ccccc2c1 [Compound 35],13000,–,–,–,–,–
15.7,46.7,–,–,–,9,–,CN(C)C[C@H](c1ccc2ccccc2c1)[C@H](O)c1ccccc1 [Compound 83],4300,–,–,–,–,–
22.6,86.2,25.4,–,590,10,–,CNCC(Cc1ccccc1CO)c1ccc2ccccc2c1 (stereo not shown) [Compound 90],12000,–,–,–,–,–
29.5,137,1.1,–,1200,10.1,–,CNC[C@H](C[C@H](O)c1ccccc1)c1ccc2ccccc2c1 [Compound 93],13000,–,–,–,–,–
212,146,268,20000,1300,9.6,–,CNCC(c1ccc2ccccc2c1)[C@@H](O)c1ccc(Cl)nc1 (stereo partly shown) [Compound 169],–,–,–,–,–,–
